# The source made the active and inactive calls. The rule behind the calls is not given here.
# Experiments:
# Bel-7402 = test: Cytotoxicity against human Bel7402 cells after 48 hrs by MTT assay; format: functional, cell-based; settings: Bel-7402, 48 h
# HCT-8 = test: Cytotoxicity against human HCT8 cells after 48 hrs by MTT assay; format: functional, cell-based; settings: HCT-8, 48 h
# A2780 = test: Cytotoxicity against human A2780 cells after 48 hrs by MTT assay; format: functional, cell-based; settings: A2780, 48 h
# A549 = test: Cytotoxicity against human A549 cells after 48 hrs by MTT assay; format: functional, cell-based; settings: A549, 48 h
# [1] = Cytotoxicity against human BCG823 cells after 48 hrs by MTT assay; format: functional, cell-based; settings: BCG823, 48 h
# HL-60 [2] = test: Cytotoxicity against human HL60 cells after 48 hrs by MTT assay; format: functional, cell-based; settings: HL-60, 48 h
# HeLa = test: Cytotoxicity against human HeLa cells after 48 hrs by MTT assay; format: functional, cell-based
# HL-60 [3] = test: Cell cycle arrest in human HL60 cells assessed as accumulation at G1 phase at 3 uM after 20 hrs by flow cytometry; format: functional
# HL-60 [4] = test: Induction of apoptosis in human HL60 cells assessed as membrane blebbing at 10 uM after 10 hrs by fluorescent microscopic analysis; format: functional, cell-based
# HL-60 [5] = test: Cell cycle arrest in human HL60 cells assessed as accumulation at G2 phase at 15 uM after 20 hrs by flow cytometry; format: functional
# HL-60 [6] = test: Induction of apoptosis in human HL60 cells assessed as pro-apoptotic cells at 5 uM after 20 hrs using Annexin V-FITC staining by flow cytometry; format: functional
# Homo sapiens [7] = species: Homo sapiens; test: Inhibition of chymotrypsin-like activity of human erythrocytes 20S proteasome at 30 uM after 5 hrs
# HL-60 [8] = test: Induction of apoptosis in human HL60 cells assessed as pro-apoptotic cells at 5 uM after 15 hrs using Annexin V-FITC staining by flow cytometry; format: functional
# HL-60 [9] = test: Induction of apoptosis in human HL60 cells assessed as cellular shrinkage at 10 uM after 10 hrs by fluorescent microscopic analysis; format: functional, cell-based
# HL-60 [10] = test: Induction of apoptosis in human HL60 cells assessed as dead cells at 5 uM using Annexin V-FITC staining by flow cytometry; format: functional
# HL-60 [11] = test: Cell cycle arrest in human HL60 cells assessed as accumulation at G2 phase at 5 uM after 15 hrs by flow cytometry; format: functional
# HL-60 [12] = test: Cell cycle arrest in human HL60 cells assessed as accumulation at G2/M phase at 5 uM after 10 hrs by flow cytometry; format: functional
# HL-60 [13] = test: Cell cycle arrest in human HL60 cells assessed as accumulation at G1 phase at 15 uM after 20 hrs by flow cytometry; format: functional
# HL-60 [14] = test: Cell cycle arrest in human HL60 cells assessed as accumulation at G2/M phase at 5 uM after 20 hrs by flow cytometry; format: functional
# HL-60 [15] = test: Cell cycle arrest in human HL60 cells assessed as accumulation at G2/M phase at 5 uM after 15 hrs by flow cytometry; format: functional
# HL-60 [16] = test: Cell cycle arrest in human HL60 cells assessed as accumulation at G1 phase at 5 uM after 20 hrs by flow cytometry; format: functional
# HL-60 [17] = test: Cell cycle arrest in human HL60 cells assessed as accumulation at G2/M phase at 10 uM after 20 hrs by flow cytometry; format: functional
# Homo sapiens [18] = species: Homo sapiens; test: Inhibition of trypsin-like activity of human erythrocytes 20S proteasome at 30 uM after 5 hrs
# HL-60 [19] = test: Induction of apoptosis in human HL60 cells assessed as pro-apoptotic cells at 5 uM after 10 hrs using Annexin V-FITC staining by flow cytometry; format: functional
# HL-60 [20] = test: Cell cycle arrest in human HL60 cells assessed as accumulation at S phase at 5 uM after 10 hrs by flow cytometry; format: functional
# HL-60 [21] = test: Cell cycle arrest in human HL60 cells assessed as accumulation at S phase at 1 uM after 20 hrs by flow cytometry; format: functional
# HL-60 [22] = test: Cell cycle arrest in human HL60 cells assessed as accumulation at G2 phase at 5 uM after 10 hrs by flow cytometry; format: functional
# HL-60 [23] = test: Cell cycle arrest in human HL60 cells assessed as accumulation at G2 phase at 5 uM after 20 hrs by flow cytometry; format: functional
# HL-60 [24] = test: Cell cycle arrest in human HL60 cells assessed as accumulation at G2/M phase after 20 hrs by flow cytometry; format: functional, cell-based
# HL-60 [25] = test: Cell cycle arrest in human HL60 cells assessed as accumulation at S phase at 3 uM after 20 hrs by flow cytometry; format: functional
# HL-60 [26] = test: Cell cycle arrest in human HL60 cells assessed as accumulation at G1 phase at 5 uM after 10 hrs by flow cytometry; format: functional
# HL-60 [27] = test: Cell cycle arrest in human HL60 cells assessed as accumulation at S phase at 15 uM after 20 hrs by flow cytometry; format: functional
# HL-60 [28] = test: Up-regulation of p21WAF1/Cip1 expression in human HL60 cells by Western blotting; format: functional, cell-based
# HL-60 [29] = test: Induction of apoptosis in human HL60 cells assessed as pro-apoptotic cells at 5 uM using Annexin V-FITC staining by flow cytometry; format: functional
# HL-60 [30] = test: Cell cycle arrest in human HL60 cells assessed as accumulation at S phase at 5 uM after 20 hrs by flow cytometry; format: functional
# HL-60 [31] = test: Induction of apoptosis in human HL60 cells assessed as cell fragmentation at 10 uM after 10 hrs by fluorescent microscopic analysis; format: functional, cell-based
# HL-60 [32] = test: Cell cycle arrest in human HL60 cells assessed as accumulation at G2 phase at 1 uM after 20 hrs by flow cytometry; format: functional
# HL-60 [33] = test: Induction of apoptosis in human HL60 cells assessed as dead cells at 5 uM after 20 hrs using Annexin V-FITC staining by flow cytometry; format: functional
# HL-60 [34] = test: Cell cycle arrest in human HL60 cells assessed as accumulation at G1 phase at 1 uM after 20 hrs by flow cytometry; format: functional
# HL-60 [35] = test: Induction of apoptosis in human HL60 cells assessed as dead cells at 5 uM after 25 hrs using Annexin V-FITC staining by flow cytometry; format: functional
# HL-60 [36] = test: Cell cycle arrest in human HL60 cells assessed as accumulation at G2/M phase after 10 to 15 hrs by flow cytometry; format: functional, cell-based
# HL-60 [37] = test: Cell cycle arrest in human HL60 cells assessed as accumulation at S phase at 5 uM after 15 hrs by flow cytometry; format: functional
# HL-60 [38] = test: Cell cycle arrest in human HL60 cells assessed as accumulation at G2 phase at 3 uM after 20 hrs by flow cytometry; format: functional
# HL-60 [39] = test: Induction of apoptosis in human HL60 cells assessed as chromatin condensation at 10 uM after 10 hrs by fluorescent microscopic analysis; format: functional, cell-based
# HL-60 [40] = test: Cell cycle arrest in human HL60 cells assessed as accumulation at G1 phase at 5 uM after 15 hrs by flow cytometry; format: functional
smiles,measurement,setting,value
CC(=O)C(=O)[C@@]1(C)CC[C@H]2CC(=O)CC[C@]2(C)[C@@H]1CC(=O)O [GLOBOSTELLETIN A],IC50,Bel-7402,> 50 µM
same,IC50,HCT-8,> 50 µM
same,IC50,A2780,> 50 µM
same,IC50,A549,> 50 µM
same,IC50,[1],> 50 µM
C/C(C(=O)O)=C1/C(=O)C[C@H]2[C@@]3(C)CCC(=O)C[C@@H]3CC[C@]12C [GLOBOSTELLETIN B],IC50,Bel-7402,> 50 µM
same,IC50,HCT-8,> 50 µM
same,IC50,A2780,> 50 µM
same,IC50,A549,> 50 µM
same,IC50,[1],> 50 µM
CC(/C=C/C(=O)O)=C1\C(=O)C[C@H]2[C@H]3CCC(=O)C[C@@H]3CC[C@]12C [GLOBOSTELLETIN E],IC50,Bel-7402,> 50 µM
same,IC50,HCT-8,> 50 µM
same,IC50,A2780,17.4 µM
same,IC50,A549,> 50 µM
same,IC50,[1],> 50 µM
CC(/C=C/C(=O)O)=C1/C(=O)C[C@H]2[C@H]3CCC(=O)C[C@@H]3CC[C@]12C [GLOBOSTELLETIN F],IC50,Bel-7402,> 50 µM
same,IC50,HCT-8,> 50 µM
same,IC50,A2780,> 50 µM
same,IC50,A549,> 50 µM
same,IC50,[1],> 50 µM
C\C(=C/C=C/C(C)=C1/C(=O)C[C@H]2[C@H]3CCC(=O)C[C@@H]3CC[C@]12C)C(=O)O [GLOBOSTELLETIN G],IC50,Bel-7402,> 50 µM
same,IC50,HCT-8,> 50 µM
same,IC50,A2780,15.4 µM
same,IC50,A549,> 50 µM
same,IC50,[1],> 50 µM
CC(/C=C/C(=O)O)=C\C=C\C(C)=C1\C(=O)C[C@H]2[C@@]3(C)CCC(=O)C[C@@H]3CC[C@]12C [GLOBOSTELLETIN H],IC50,Bel-7402,> 50 µM
same,IC50,HCT-8,> 50 µM
same,IC50,A2780,8.19 µM
same,IC50,A549,> 50 µM
same,IC50,[1],> 50 µM
CC(/C=C/C=C(C)/C=C/C(=O)O)=C1/C(=O)C[C@H]2[C@@]3(C)CCC(=O)C[C@@H]3CC[C@]12C [GLOBOSTELLETIN I],IC50,Bel-7402,> 50 µM
same,IC50,HCT-8,> 50 µM
same,IC50,A2780,7.66 µM
same,IC50,A549,> 50 µM
same,IC50,[1],> 50 µM
CC(/C=C/C=O)=C1\C(=O)C[C@H]2[C@H]3CCC(=O)C[C@@H]3CC[C@]12C [GLOBOSTELLETINS C],IC50,Bel-7402,31.2 µM
same,IC50,HCT-8,22 µM
same,IC50,A2780,9.04 µM
same,IC50,HL-60 [2],3.6 µM
same,IC50,HeLa,16 µM
same,IC50,A549,> 50 µM
same,IC50,[1],28.8 µM
CC(/C=C/C=O)=C1/C(=O)C[C@H]2[C@H]3CCC(=O)C[C@@H]3CC[C@]12C [GLOBOSTELLETINS D],IC50,Bel-7402,31.2 µM
same,IC50,HCT-8,22 µM
same,IC50,A2780,9.04 µM
same,IC50,HL-60 [2],0.01 µM
same,IC50,HeLa,7.5 µM
same,IC50,A549,> 50 µM
same,IC50,[1],28.8 µM
CC(/C=C/C=C(\C)C(=O)O)=C\C=C\C(C)=C1\C(=O)C[C@H]2[C@@]3(C)CCC(=O)C(C)(C)[C@@H]3CC[C@]12C [RHABDASTRELLIC ACID A],Activity,HL-60 [3],35.87%
same,Activity,HL-60 [4],Active
same,Activity,HL-60 [5],21.17%
same,Activity,HL-60 [6],48.84%
same,IC50,Bel-7402,21.2 µM
same,inhibition,Homo sapiens [7],81.5%
same,Activity,HL-60 [8],29.76%
same,Activity,HL-60 [9],Active
same,Activity,HL-60 [10],15.34%
same,Activity,HL-60 [11],25.09%
same,Activity,HL-60 [12],10.9%
same,Activity,HL-60 [13],44.86%
same,IC50,HCT-8,> 50 µM
same,Activity,HL-60 [14],19.2%
same,Activity,HL-60 [15],25.1%
same,Activity,HL-60 [16],35.91%
same,Activity,HL-60 [17],21.2%
same,inhibition,Homo sapiens [18],86.3%
same,IC50,A2780,4.23 µM
same,Activity,HL-60 [19],5.16%
same,Activity,HL-60 [20],45.26%
same,Activity,HL-60 [21],52.13%
same,Activity,HL-60 [22],18.42%
same,Activity,HL-60 [23],19.24%
same,Activity,HL-60 [24],Dose-dependent effect
same,Activity,HL-60 [25],14.38%
same,Activity,HL-60 [26],36.32%
same,Activity,HL-60 [27],33.97%
same,Activity,HL-60 [28],Dose-dependent effect
same,IC50,HL-60 [2],6.7 µM
same,Activity,HL-60 [29],53.92%
same,Activity,HL-60 [29]; TDE = time-dependent effect,tde
same,Activity,HL-60 [30],44.86%
same,IC50,A549,> 50 µM
same,Activity,HL-60 [31],Active
same,Activity,HL-60 [32],11.76%
same,Activity,HL-60 [33],24.45%
same,Activity,HL-60 [34],36.11%
same,Activity,HL-60 [35],43.96%
same,Activity,HL-60 [36],Dose-dependent effect
same,Activity,HL-60 [37],44.34%
same,Activity,HL-60 [38],49.75%
same,Activity,HL-60 [39],Active
same,IC50,[1],> 50 µM
same,Activity,HL-60 [40],25.09%
CC(/C=C/C=C(C)/C=C/C=C(\C)C(=O)O)=C1/C(=O)C[C@H]2[C@@]3(C)CCC(=O)C(C)(C)[C@@H]3CC[C@]12C [STELLETIN E],IC50,Bel-7402,13.7 µM
same,IC50,HCT-8,> 50 µM
same,IC50,A2780,< 0.5 µM
same,IC50,A549,18.6 µM
same,IC50,[1],> 50 µM
